# Results reported in US20240366495A1, “COMPOSITION FOR AMELIORATING WRINKLES USING FERMENTED EXTRACT OF CANNABIS STEM AND PREPARATION METHOD THEREOF” (KOREA INSTITUTE OF SCIENCE AND TECHNOLOGY, priority 2023, published 2024).
# What was measured:
# [1] = test system: human dermal fibroblasts (HDFs); conditions: sample 0 to 1000 μg/mL, 24 hours, MTT, FIG. 1 / FIG. 2
# Procedure: First, the cytotoxicity of each sample was confirmed using the following method. After human dermal fibroblasts (HDFs) were cultured in a 96-well culture plate at a concentration of 1.5×10^4 cells/well for 24 hours to reach a clustering coefficient of 70 to 80%, and then the sample prepared in Example 1 was treated at a concentration of 0 to 1000 μg/mL, and cultured in an incubator (37° C., 5% CO2) for an additional 24 hours. […] The absorbance of each well was measured at 570 nm using a microplate reader.
# HDFs = assay: Observation of cell morphology changes after UVB irradiation; assay type: cell-based, human; conditions: highest non-cytotoxic concentration, UVB 25 mJ/cm^2 after 2 hours, cultured 24 hours, FIG. 3
# Procedure: An experiment for confirming an anti-wrinkle effect was conducted on each sample confirmed in Example 1.
compound,measurement,setting,value
O=C1O[C@H]([C@@H](O)CO)C(O)=C1O [vitamin C],concentration at which cytotoxicity is exhibited,[1],≥ 500 µg/mL
same,number of cells after UVB irradiation,HDFs,number of cells increased to the level of the untreated group
